From US20230019236A1, “PROTEIN TYROSINE PHOSPHATASE INHIBITORS AND METHODS OF USE THEREOF” (Calico Life Sciences LLC, priority 2019, published 2023)

Molecular target: T1, His tagged full-length PTP1B protein (Homo sapiens, UniProt P18031)
T1 construct: made in house
T1 sequence (P18031 with tags, fused parts or gaps): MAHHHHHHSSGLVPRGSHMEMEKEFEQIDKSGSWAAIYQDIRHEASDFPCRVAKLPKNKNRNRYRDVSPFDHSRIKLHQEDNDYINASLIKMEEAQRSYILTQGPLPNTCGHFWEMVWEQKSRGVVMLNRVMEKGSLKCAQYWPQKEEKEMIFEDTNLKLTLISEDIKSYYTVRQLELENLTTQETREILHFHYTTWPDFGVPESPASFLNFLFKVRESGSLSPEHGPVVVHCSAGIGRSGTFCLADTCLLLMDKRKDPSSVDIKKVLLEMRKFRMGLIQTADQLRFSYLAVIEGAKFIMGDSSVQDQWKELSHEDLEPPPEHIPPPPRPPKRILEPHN
Assay: Mobility Shift Assay (MSA) used to determine potency of PTP1B inhibitors
Type: biochemical
Settings: Table 2
Protocol: The enzymatic assay used to determine activity is a mobility shift assay using a LabChip EZ Reader by Caliper Life Sciences. The enzymatic reaction was carried out in assay buffer (50 mM HEPES pH 7.5, 1 mM EGTA, 10 mM EDTA, 0.01% Tween® 20, and 2 mM DTT). […] The enzyme (at 0.5 nM) was incubated with compound for 10 minutes at room temperature. […] The % inhibition was then used to calculate the IC50 values.

Structure (SMILES) | IC50 [nM]
COC(C)(C)CCOc1ccc2cc(O)c(N3CC(=O)NS3(=O)=O)c(F)c2c1 [Compound 170, 5-[1-fluoro-3-hydroxy-7-(3-methoxy-3-methylbutoxy)naphthalen-2-yl]-1λ^6,2,5-thiadiazolidine-1,1,3-trione] | 1 to 10
COCCOc1ccc2cc(O)c(N3CC(=O)NS3(=O)=O)c(F)c2c1 [Compound 119, 5-[1-fluoro-3-hydroxy-7-(2-methoxyethoxy)naphthalen-2-yl]-1λ^6,2,5-thiadiazolidine-1,1,3-trione] | 1 to 10
O=C1CN(c2c(O)cc3ccc(OCCCn4cccn4)cc3c2F)S(=O)(=O)N1 [Compound 183, 5-{1-fluoro-3-hydroxy-7-[3-(1H-pyrazol-1-yl)propoxy]naphthalen-2-yl}-1λ^6,2,5-thiadiazolidine-1,1,3-trione] | 1 to 10
CCNCCCc1ccc2cc(O)c(N3CC(=O)NS3(=O)=O)c(F)c2c1 [Compound 140, 5-{7-[3-(ethylamino)propyl]-1-fluoro-3-hydroxynaphthalen-2-yl}-1λ^6,2,5-thiadiazolidine-1,1,3-trione] | 10 to 100
CNCCOc1ccc2cc(O)c(N3CC(=O)NS3(=O)=O)c(F)c2c1 [Compound 143, 5-{1-fluoro-3-hydroxy-7-[2-(methylamino)ethoxy]naphthalen-2-yl}-1λ^6,2,5-thiadiazolidine-1,1,3-trione] | 10 to 100
C[C@@H](O)CCCc1ccc2cc(O)c(N3CC(=O)NS3(=O)=O)c(F)c2c1 [Compound 151, 5-{1-fluoro-3-hydroxy-7-[(4R)-4-hydroxypentyl]naphthalen-2-yl}-1λ^6,2,5-thiadiazolidine-1,1,3-trione] | 1 to 10

Now from value to compound:

IC50 [nM] | Structure (SMILES)
1 to 10 | O=C1CN(c2c(O)cc3ccc(CC4CCN(CC(F)(F)F)CC4)cc3c2F)S(=O)(=O)N1 [Compound 252, 5-(1-fluoro-3-hydroxy-7-{[1-(2,2,2-trifluoroethyl)piperidin-4-yl]methyl}naphthalen-2-yl)-1λ^6,2,5-thiadiazolidine-1,1,3-trione]
1 to 10 | CCNC(=O)NCCOc1ccc2cc(O)c(N3CC(=O)NS3(=O)=O)c(F)c2c1 [Compound 270, N-ethyl-N′-(2-{[8-fluoro-6-hydroxy-7-(1,1,4-trioxo-1λ^6,2,5-thiadiazolidin-2-yl)naphthalen-2-yl]oxy}ethyl)urea]
10 to 100 | O=C1CN(c2c(O)cc3ccc(C4CCNCC4)cc3c2F)S(=O)(=O)N1 [Compound 299, 5-[1-fluoro-3-hydroxy-7-(piperidin-4-yl)naphthalen-2-yl]-1λ^6,2,5-thiadiazolidine-1,1,3-trione]
1 to 10 | Nc1cccc(CS(=O)(=O)N2CC=C(c3ccc4cc(O)c(N5CC(=O)NS5(=O)=O)c(F)c4c3)C2)c1 [Compound 194, 5-(7-{1-[(3-aminophenyl)methanesulfonyl]-2,5-dihydro-1H-pyrrol-3-yl}-1-fluoro-3-hydroxynaphthalen-2-yl)-1λ^6,2,5-thiadiazolidine-1,1,3-trione]
> 100 | CCOc1ccc2cc(O)c(N3CC(=O)NS3(=O)=O)c(F)c2c1 [Compound 301, 5-(7-ethoxy-1-fluoro-3-hydroxynaphthalen-2-yl)-1λ^6,2,5-thiadiazolidine-1,1,3-trione]
< 1 | CC(C)CS(=O)(=O)N1CC=C(c2ccc3cc(O)c(N4CC(=O)NS4(=O)=O)c(F)c3c2)C1 [Compound 300, 5-{1-fluoro-3-hydroxy-7-[1-(2-methylpropane-1-sulfonyl)-2,5-dihydro-1H-pyrrol-3-yl]naphthalen-2-yl}-1λ^6,2,5-thiadiazolidine-1,1,3-trione]
< 1 | O=C1CN(c2c(O)cc3ccc(OCC4CC(F)(F)C4)cc3c2F)S(=O)(=O)N1 [Compound 235, 5-{7-[(3,3-difluorocyclobutyl)methoxy]-1-fluoro-3-hydroxynaphthalen-2-yl}-1λ^6,2,5-thiadiazolidine-1,1,3-trione]
> 100 | O=C1CN(c2c(O)cc3ccc(O)cc3c2F)S(=O)(=O)N1 [Compound 276, 5-(1-fluoro-3,7-dihydroxynaphthalen-2-yl)-1λ^6,2,5-thiadiazolidine-1,1,3-trione]
